The numbers were not newly measured in US8759032B2, “Genetically engineered strain WSJ-IA for producing isovaleryl spiramycin I” (Shen Yang Tonglian Group Co., Ltd., priority 2010, dated 2014), which cites them from elsewhere.

The conditions of the series: single components; no significant differences in their activities; patent application 201010119745.1.

Consider `CCC(=O)O[C@@H]1CC(=O)O[C@H](C)C/C=C/C=C/[C@H](O[C@H]2CC[C@H](N(C)C)[C@@H](C)O2)[C@H](C)C[C@H](CC=O)[C@H](O[C@@H]2O[C@H](C)[C@@H](O[C@H]3C[C@@](C)(O)[C@@H](OC(=O)CC(C)C)[C@H](C)O3)[C@H](N(C)C)[C@H]2O)[C@H]1OC` [Isovaleryl spiramycin III], for which the antibiotic activities result is “all have antibiotic activities”. `CO[C@@H]1[C@@H](O[C@@H]2O[C@H](C)[C@@H](O[C@H]3C[C@@](C)(O)[C@@H](OC(=O)CC(C)C)[C@H](C)O3)[C@H](N(C)C)[C@H]2O)[C@@H](CC=O)C[C@@H](C)[C@@H](O[C@H]2CC[C@H](N(C)C)[C@@H](C)O2)/C=C/C=C/C[C@@H](C)OC(=O)C[C@H]1O` [Isovaleryl spiramycin I]: the antibiotic activities entry is given as “all have antibiotic activities”. Turning to Isovaleryl spiramycin II, the antibiotic activities result is reported as “all have antibiotic activities”.
